{"source": "patent US20230295212A1", "about": "(ROME Therapeutics, Inc., priority 2022, published 2023)", "key": {"[1]": {"system": "THP1-Dual KO-TREX1 xenograft tumors", "test": "Altering IFN production in THP1 TREX1 KO xenografts (compounds 2, 25, 40)", "assay_type": "in vivo, mouse", "settings": "CB-17 SCID mice, decitabine 5 mg/kg IP, test compound 10, 30 or 100 mg/kg PO once daily 4 days, tumors 24 h post-last dose", "procedure": "Exemplary compounds 2, 25 and 40 were tested for their ability to alter IFN levels in THP1-Dual™ KO-TREX1 xenografts in mice. Assay procedures are described below.\nCB-17 SCID female mice were inoculated subcutaneously with 10 million THP1-Dual™ KO-TREX1 cells in 200 μl PBS with Matrigel (1:1) and grouped when tumor volume reached 350-400 mm^3. Mice bearing THP1-Dual™ KO-TREX1 xenograft tumors were then separated into 5 groups. Three groups were administered: (1) decitabine (DAC) at 5 mg/kg IP, once daily, for 4 days, and (2) test compound at 10, 30, or 100 mg/kg, PO, once daily, for 4 days. One group was administered decitabine (DAC) at 5 mg/kg IP, once daily, for 4 days, and the test compound vehicle control. The final group was administered the vehicle control from both the test compound and the vehicle control from decitabine. Decitabine is formulated in sterile PBS, pH 7.4, and Compound 2, 25, and 40 were formulated in 20% PEG400 in PBS.\nTumors were harvested 24 h post-last dose administered on day 4, ground in PBS at 50 Hz for 5 min, and kept on ice for 30 min while being vortexed every 5 min. […] Equal amounts of proteins were added to 96-well black plates, and luciferase signal was measured using the QUANTI-Luc™ detection medium according to manufacturer's instructions. Luminescence was measured using the EnVision® 2105 Multimode Plate Reader. […]"}, "[2]": {"target": "T1, LINE1 reverse transcriptase (Homo sapiens, UniProt O00370)", "T1 construct": "expressed in transfected cells; host or cells: HeLa Tet-On 3G (Takara, cat no 631183)", "T1 sequence (O00370 whole entry, looked up)": "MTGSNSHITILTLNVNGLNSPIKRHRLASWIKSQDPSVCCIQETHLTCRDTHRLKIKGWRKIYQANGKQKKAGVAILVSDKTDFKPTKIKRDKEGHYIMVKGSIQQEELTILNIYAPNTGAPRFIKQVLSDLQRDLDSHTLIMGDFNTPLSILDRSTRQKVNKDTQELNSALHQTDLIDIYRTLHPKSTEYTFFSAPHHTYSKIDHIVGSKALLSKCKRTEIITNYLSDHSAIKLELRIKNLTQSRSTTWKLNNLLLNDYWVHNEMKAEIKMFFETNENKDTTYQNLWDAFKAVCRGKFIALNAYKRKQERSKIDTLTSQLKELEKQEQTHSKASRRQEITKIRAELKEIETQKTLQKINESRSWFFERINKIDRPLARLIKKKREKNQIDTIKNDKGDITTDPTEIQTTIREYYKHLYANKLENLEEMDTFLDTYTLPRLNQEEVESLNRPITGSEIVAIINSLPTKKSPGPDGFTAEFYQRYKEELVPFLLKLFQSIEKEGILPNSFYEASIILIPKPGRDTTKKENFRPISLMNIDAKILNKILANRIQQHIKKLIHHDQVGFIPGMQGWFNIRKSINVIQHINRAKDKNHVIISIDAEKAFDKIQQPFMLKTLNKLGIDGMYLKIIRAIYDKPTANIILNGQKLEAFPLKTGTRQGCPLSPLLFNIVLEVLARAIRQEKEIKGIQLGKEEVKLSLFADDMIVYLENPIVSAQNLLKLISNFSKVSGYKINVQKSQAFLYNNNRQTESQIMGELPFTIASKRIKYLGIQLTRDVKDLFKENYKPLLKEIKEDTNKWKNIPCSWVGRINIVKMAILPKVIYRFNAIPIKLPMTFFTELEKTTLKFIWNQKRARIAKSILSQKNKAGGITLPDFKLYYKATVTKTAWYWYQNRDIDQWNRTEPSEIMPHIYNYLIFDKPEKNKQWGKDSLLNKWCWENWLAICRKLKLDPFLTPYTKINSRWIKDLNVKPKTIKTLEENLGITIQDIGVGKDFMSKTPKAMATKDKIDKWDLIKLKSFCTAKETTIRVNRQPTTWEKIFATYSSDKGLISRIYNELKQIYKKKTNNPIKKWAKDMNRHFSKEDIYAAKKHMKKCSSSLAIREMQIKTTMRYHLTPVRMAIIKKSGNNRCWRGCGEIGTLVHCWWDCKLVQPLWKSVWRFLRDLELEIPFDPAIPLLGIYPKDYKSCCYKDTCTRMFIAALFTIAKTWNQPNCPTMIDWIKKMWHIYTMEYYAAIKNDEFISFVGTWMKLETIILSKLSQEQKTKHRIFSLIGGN", "test": "Stable artificial-intron Cis LINE1 reporter assay (HeLa Tet-On 3G, Firefly luciferase)", "assay_type": "cell-based", "settings": "HeLa L1 artificial-intron reporter cells, doxycycline 500 ng/mL, 72 h, class symbols", "summary_of_the_method": "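HeLa Tet-On 3G clone stably carrying a bi-directional doxycycline-inducible artificial-intron LINE1 reporter, plated at 8,000 cells/well onto serially diluted compound. Expression induced with 500 ng/mL doxycycline (final); Firefly luciferase luminescence (Dual-Glo) read 72 h after plating as LINE1 activity.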"}, "[3]": {"system": "THP1 Dual TREX1 KO cells", "test": "THP1 TREX1 KO inhibition assay, combination dosing (stampidine and Compound 2)", "assay_type": "cell-based", "settings": "combination of stampidine and Compound 2; k>0 denotes synergy", "procedure": "Exemplary compounds were tested to determine the effect of combined dosing of two compounds on the type 1 interferon response in THP1 Dual TREX1 KO cells treated with 5-aza-2′-deoxycytidine. Assay procedures and results are described below.\nTHP1 Dual TREX1 KO cells were purchased from InvivoGen. The THP1-Dual™ KO-TREX1 cells were cultured in RPMI 1640, 10% heat-inactivated fetal bovine serum, 25 mM HEPES, 10 μg/mL blasticidin, and 100 μg/mL Zeocin. THP1-Dual™ KO-TREX1 cells were treated with a dose titration of test compound in the presence of 1 μM 5-aza-2′-deoxycytidine (Sigma, cat #189825). Type 1 Interferon and cell viability were assessed after five days of treatment.\nStock solution of test compounds stampidine and Compound 2 were prepared in DMSO followed by a three-fold dilution in DMSO. […]\nTHP1-Dual™ KO-TREX1 cells were treated with 1 μM 5-aza-2′-deoxycytidine. […] Luminescence was detected on a plate reader according to manufacturer's instructions. […]\nThe remaining cells were assessed for cell viability by adding 30 μl of CellTiter-Glo (Promega, G9683) solution to each well, and placed on a shaker for 10 minutes at room temperature. Luminescence was detected on a plate reader, according to manufacturer's instructions. […]"}}}
{"smiles": "Nc1ccn([C@H]2C[C@H](O)[C@](CO)(CCl)O2)c(=O)n1", "note": "[Compound 2, 4-amino-1-((2R,4S,5R)-5-(chloromethyl)-4-hydroxy-5-(hydroxymethyl)tetrahydrofuran-2-yl)pyrimidin-2(1H)-one]", "values": [{"measurement": "inhibition of DAC-induced IFN signal in THP1 tumors", "setting": "[1]", "value": "potent inhibition of DAC-induced IFN signal"}, {"measurement": "IC50", "setting": "[2]", "value": "≤ 50", "unit": "nM"}, {"measurement": "best BRAID fit k", "setting": "[3]", "value": "2.00 (0.583-3.64)"}]}
